Tests used:
[1] = levels as high as 800.0 mg; cited from earlier work
[2] = single-dose bioavailability study, gavage feeding of 32:6 n-3 loaded liposomes, GC-MS of tissue lipids; type: in vivo, wild-type (WT) C57BL/6J mice
Experimental: FIGS. 1A and 1B show wild-type (WT) mice single-dose bioavailability studies: (1A) Serum absorption kinetics of C32 acid (6n-3) (“32:6n-3”) after single-dose gavage feeding of 6 mg/mouse (n=4 mice/time point) and (1B) retina and RPE uptake of 32:6 n-3 after single-dose gavage feeding. No VLCPUFAs were detected in liver, brain, or RBC membranes at any time point. Data are presented as mean±SEM (***P<0.005; **P<0.01; *P<0.05).
Three month old wild-type (WT) C57BL/6J mice (22±3 g) were each gavage fed 6 mg per day of C32 acid (6n-3) (“32:6 n-3”) loaded VLCPUFA liposomes (0.1 mL) (250 mg/kg body weight) prepared as disclosed in Gorusupudi et al. PNAS 118(6), e2017739118 (2021), which is incorporated herein by reference in its entirety. The mice were killed 0, 2, 4, 8, and 24 h after gavage (n=4 mice/time interval) to harvest the blood and other tissues. Eyes were dissected under a microscope to separate the retina from the RPE. One pair of retinas/mouse was used for lipid extraction, and blood was centrifuged for 5 minutes at 7,500 rpm to separate serum from RBCs. Serum, RBCs, brain, liver, retina, and RPE were used for lipid extractions and GC-MS analysis.
(§1) On the other hand, 32:6 n-3 remained undetectable in liver, brain, and red blood cell (RBC) membranes throughout the 24 h period. Longer-term absorption was studied by gavage feeding VLCPUFA-loaded liposomes (0.1 mL) to WT (22±3 g) and conditional KO mice developed with an intention to ablate Elov14 expression completely in both rods and cones (E4cKO mice) (23±3 g) for 15 d with 0, 1, and 2 mg/d 32:6 n-3 (n=6 mice/group). Mice were fed each morning with liposomes prepared as above containing 0 mg/d (0 mg/kg BW), 1 mg/d (40 mg/kg BW), or 2 mg/d (80 mg/kg BW) of 32:6 n-3. Mice were killed at the end of the experiments, and retina, RPE, liver, serum, RBCs, and brain tissues were harvested, extracted for lipids, and analyzed by GC-MS.

[3] = long-term uptake of 32:6 n-3 in Elov14 rod-cone conditional KO mice, 15 d gavage feeding; type: in vivo, E4cKO mice; conditions: 2 mg/d
Experimental: FIGS. 4A and 4B show long-term uptake of 32:6n-3 (2 mg/d per mouse) in Elov14 rod-cone conditional KO (E4cKO) mice: (4A) Accumulation of 32:6 n-3 in E4cKO mouse retinas and RPE in comparison to age-matched WT mice after 15 d of gavage feeding (n=6 mice/group) and (4B) Accumulation of 32:6n-3 in liver and RBCs in E4cKO mice in comparison to age-matched WT mice after 15 d of gavage feeding. Data are presented as mean±SEM (**P<0.01; N.S.: not significant; N.D.: not detectable).
as §1
(§2) Retina and RPE were extracted for phospholipid analysis using liquid chromatography-tandem MS (LC-MS/MS), and increases in phosphatidylcholine (PC)-22:6/32:6 were detected in the retina and RPE in the supplemented WT animals (FIGS. 3A and 3B). Retinal and RPE 32:6 n-3 levels in the E4cKO mice were one-third and one-half of the levels in the age-matched WT mice, respectively (FIG. 4A).

[4] = repeated-dose (15 d) bioavailability study, gavage feeding of 32:6 n-3 loaded liposomes, GC-MS of tissue lipids; type: in vivo, WT mice; conditions: 15 d gavage
Experimental: FIGS. 2A and 2B show WT mice repeated-dose bioavailability studies: (2A) Accumulation of 32:6 n-3 in mouse retina and RPE after 15 d of gavage feeding (n=6 mice/group) and (2B) Bioaccumulation of 32:6n-3 in serum, RBC, and liver after 15 d of gavage feeding. […] Data are presented as mean±SEM (***P<0.005; **P<0.01; N.S.: not significant; N.D.: not detectable).
as §1

[5] = phospholipid analysis of retina and RPE by LC-MS/MS after 15 days of gavage feeding; type: in vivo, WT mice; conditions: 15 days gavage, 2 mg/day, supplemented WT animals
Experimental: FIGS. 3A and 3B show phospholipid analysis of wild type (WT) mice after 15 days of gavage feeding of VLCPUFA 32:6n-3 (2 mg/day): (3A) Retina and (3B) RPE. Data presented as mean±SEM (n=8 mice/group) (p values: *p<0.05; N.S.: not significant; N.D.: not detectable).
as §2

[6] = single gavage dose 6 mg/mouse, 4 to 8 h after gavage
[7] = single gavage dose 6 mg/mouse, throughout the 24 h period
[8] = versus undetectable levels at 0 mg/d
[9] = 32:6 n-3-fed groups versus control mice (undetectable)

vitamin E
adverse effects [1]: No adverse effects

CC/C=C\C/C=C\C/C=C\C/C=C\C/C=C\C/C=C\CCCCCCCCCCCCC(=O)O [32:6 n-3, C32 acid (6n-3)]
time after oral administration at which serum 32:6 n-3 became detectable ([2]; single gavage dose 6 mg/mouse (250 mg/kg), serum): ≤ 2 h
32:6 n-3 in the RPE [2, 6]: significant increase
32:6 n-3 in the retina [2, 6]: significant increase
serum 32:6 n-3 concentration course ([2]; single gavage dose 6 mg/mouse, serum, over the next 24 h): reached a lower steady-state concentration
32:6 n-3 in brain [2, 7]: undetectable
32:6 n-3 in liver [2, 7]: undetectable
32:6 n-3 in red blood cell (RBC) membranes [2, 7]: undetectable
increase of 32:6 n-3 level in the retina relative to control-fed E4cKO mice ([3]; 8-mo-old E4cKO mice, P<0.01): nearly fivefold increase
increase of 32:6 n-3 level in the RPE relative to control-fed E4cKO mice ([3]; 8-mo-old E4cKO mice, P=0.001): 27 fold
total retinal VLCPUFAs ([3]; E4cKO mice): 0.088±0.02%
RBC 32:6 n-3 [3, 8]: became detectable
liver 32:6 n-3 [3, 8]: became detectable
VLCPUFAs in the brain [4]: no VLCPUFAs were ever detectable
total retinal VLCPUFAs ([4]; 1 mg/d group): 0.535±0.06%
total retinal VLCPUFAs ([4]; 2 mg/d group): 0.872±0.10%
32:6 n-3 in the liver ([4]; 2 mg/d group (only group with detectable levels)): detectable
RBC VLCPUFAs [4, 9]: significantly increased
serum VLCPUFAs [4, 9]: significantly increased
increase of C32 acid (6n-3) level in RPE versus 0 mg/d controls ([4]; both fed groups (1 and 2 mg/d)): sevenfold
increase of C32 acid (6n-3) level in the retina versus 0 mg/d controls ([4]; both fed groups (1 and 2 mg/d)): more than twofold
phosphatidylcholine (PC)-22:6/32:6 in the RPE [5]: increases
phosphatidylcholine (PC)-22:6/32:6 in the retina [5]: increases

— patent US20230124374A1, “COMPOSITIONS AND METHODS FOR EYE HEALTH COMPRISING VERY LONG CHAIN FATTY ACIDS” (BAUSCH + LOMB IRELAND LIMITED, priority 2020, published 2023)
